Measurements: patent US20210244791A1, “APPLICATION OF PEDF-DERIVED SHORT PEPTIDES IN TENDON HEALING” (BRIM Biotechnology, Inc., priority 2018, published 2021)

Columns and labels:
Primary rabbit TSPC = assay: TSPC cell proliferation assay (fluorometric kit); type: cell-based; details: 10 μM peptide, low serum media, PDSP solvent (DMSO) set as 100%, mean±SE of three experiments
Protocol: Primary rabbit TSPC were cultured to near-confluence in a 75T cell culture flask and then verified by immunostaining of a TSPC marker, nucleostemin (>98%; green color). Nuclei were stained with Hoechst 33258 (blue color) and visualized by an epifluorescence microscopy. The nucleostemine-positive TSPC were treated with 10 μM 29-mer or its variants for 24 h. The numbers of TSPC after 24-h expansion were detected with a cell proliferation assay kit (BioVision; catalog number: K307). The TSPC treated with PDSP solvent was set as 100%. Results are expressed as mean±SE of three independent experiments.
(§1) Achilles tendons from New Zealand White rabbits (6-8 months old, 3.0-4.0 kg) were used in this study. Achilles tendons were washed two times with sterile phosphate-buffered saline (PBS) containing 50 μg/ml gentamicin. The tendon and tendon sheath were cut into small pieces (1-2 mm^3). Each 100 mg of fragment was then digested in a solution containing 3 mg/ml of type I collagenase and 4 mg/ml of dispase in 1 ml balance salt solution (BSS; Alcone) at 37° C. for 4 hours. The digested tissues were washed three times with PBS and collected by centrifugation (800 g for 10 min). The digested tissues were placed in tissue-culture plates (Falcon Labware; NJ, USA) and resuspended in high-glucose DMEM supplemented with 10% FBS and 50 μg/ml gentamycin, and maintained at 37° C. with 5% CO2. After 5 days, the medium was changed to remove the loosened tissue residues. Subsequently, tendon cells were incubated with 10% FBS medium for 2 days, and then cultured with a basal medium (2% FBS, 1% ITSE, 300 μg/ml L-glutamine, 1% antibiotic-antimicotic solutions) for further 10 days. Culture medium was changed every 3 days. For passage, tendon cells were harvested with 0.25% trypsin/EDTA, cell counting by haemocytometer, approximately 5×10^3 cells were seeded in each well of a 96-well cell culture plate or 2×10^5 cells were seeded in each well of a 6-well cell culture plate for 24 h. These expanded tendon cells were then treated with 10 μM 29-mer or its variants in fresh basal medium for further 24 h and subjected to cell proliferation assay and western blot analysis, respectively.
Cell Proliferation Assay Kit (Fluorometric) was purchased from BioVision (Catalog #: K307) and used to evaluate cell proliferation according to the manufacturer's recommendations. The fluorescence was read at 480 nm for excitation and 538 nm for emission on a SPECTRAmax GEMINI XS fluorescence microplate spectrophotometer (Molecular Devices, Sunnyvale, Calif., USA).
Rabbit TSPC isolation was described above. TSPC in low serum media were treated with 10 μM of one of the 29-mer variants for 24 h. Cell proliferation was examined by a cell proliferation kit based on a kit provided nuclear dye that specifically binds to nucleic acid in the cell and generates green fluorescence.

[1] = tested on: cultured tendon stem/progenitor cells (TSPC); details: peptide added in culture medium; previous study; cited from earlier work
tendon rupture = details: rat model; previous study; cited from earlier work
cyclin D1 = assay: Western blot analysis of cyclin D1 expression in TSPC; type: cell-based, rabbit; details: TSPC treated 24 h; compared with solvent-treated cells; normalized to β-actin
Protocol: Primary rabbit TSPC were treated with 10NM 29-mer or its variants for 24 h. Representative blots (A) and densitometric analysis with the SD (B) from three independent experiments are shown. Cyclin D1 expression was normalized to ([…]. *P<0.01 vs. solvent-treated cells. ^#P<0.05 vs. 29-mer-treated cells.
as §1
Cell lysis, SDS-PAGE, and antibodies used for immunoblotting were performed as described (Ho et al., 15-deoxy-Delta(12,14)-prostaglandin J2 induces vascular endothelial cell apoptosis through the sequential activation of MAPKS and p53. J Biol. Chem., 2008; 283(44): 30273-30288). The band intensity in immunoblot was evaluated with a Model GS-700 imaging densitometer (Bio-Rad Laboratories, Hercules, Calif.) and analyzed using Labworks 4.0 software.
However, the 29-mer effect on cyclin D1 protein induction was almost abolished by alanine/glycine replacement at residue S93, A96, Q98, 1103, 1104 and R106, respectively (1.3±0.1, 1.5±0.3, 1.3±0.1, 0.9±0.1, 1.3±0.2, and 1.0±0.3). […] The data also imply that the PDSP at positions Ser93, Ala96, Gln98, Ile103, Ile104, and Arg106 are important for sustaining the PDSP effect on induction of TSPC proliferation.

injured Achilles tendon = assay: Rat model of Achilles tendon injury, histology (H&E) and histopathological score; type: in vivo; details: 1 week postoperative; subcutaneous 150 μl alginate gel with 100 μM peptide
Text: Representative micrographs of the histopathological analysis by H&E staining. H&E-stained sections in higher magnification show uninjured tendon tissue with a relative scarcity of cells among the collagen fibers.
(A) Representative H&E-stained longitudinal sections in higher magnification show the nuclei morphologies in uninjured tendon tissue and injured tendon treated with vehicle/alginate and 29-mer/alginate for 1 week. (B) Histopathological scores. Total scores were determining by fiber structure, fiber arrangement, rounding of the nuclei, resident cell density and inflammation (infiltration of inflammatory cells, neovascularization and fatty deposits). Data are reported as mean±SE. *P<0.0005 versus vehicle/alginate-treated tendon; ^#P<0.05 versus 29-mer/alginate-treated tendon.
To investigate the effects of the 29-mer peptide on tendon healing, a rat model of Achilles tendon injury was established as reported by Orhan et al. (The effect of extracorporeal shock waves on a rat model of injury to tendon Achilles. A histological and biomechanical study. J. Bone Joint Surg. Br. 2004;.86(4):.613-618). Adult 10-week-old male Sprague-Dawley rats (initial body weight=312±11 g) were anesthetized by an intraperitoneal injection of xylazine (10 mg/kg). Then, the left tendo Achilles injury was created by full-thickness insertion of an 18-G needle through tendo Achilles 1 cm proximal to the calcaneum attachment site. This created a horizontal wound that was flanked by intact tendon tissue to prevent the retraction of severed ends. The skin incision was closed after the wound was irrigated with sterile saline. Treatments were applied to area around the tendon lesion by subcutaneous injection with 150 μl of alginate gel mixed with 100 μM 29-mer or DMSO vehicle (six rats per experimental condition).
The tendon and surrounding soft tissue were dissected. Specimens were fixed in a 4% paraformaldehyde (PFA) solution and then were embedded in paraffin blocks. Sections (5 μm in thickness) were longitudinally cut and stained with hematoxylin and eosin (H&E) or used for immunohistochemical examination. 36 sections per tendon were carefully prepared so as to include the most severely degenerated area. Images were captured using a Nikon Eclipse 80i microscope (Nikon Corporation, Tokyo, Japan) equipped with a Leica DC 500 camera (Leica Microsystems, Wetzlar, Germany). Four sections of each sample containing injured tendon tissues were selected and evaluated by two blinded observers to assess the tendon morphology according to a modified semi-quantitative grading score from 0 to 3 proposed by Chen et al. (Tendon derived stem cells promote platelet-rich plasma healing in collagenase-induced rat Achilles tendinopathy. Cell Physiol. Biochem., 2014; 34(6): 2153-68). The scores analyzed the fiber structure (0-3), fiber arrangement (0-3), rounding of the nuclei (0-3), resident cell density (0-3), and inflammation (0-3; infiltration of inflammatory cells, neovascularization and fatty deposits). According to this grading system, a perfectly normal tendon obtained a score of 0, whereas a score of 15 was assigned to maximally abnormal tendons.
To investigate the therapeutic effect of the 29-mer peptide on injured tendon, a rat model of Achilles tendon injury was established by full-thickness insertion of an 18-G needle through the tendon Achilles. We delivered the 29-mer in a 150 μl alginate gel, which releases 90% loaded 29-mer in 5 days as described in a previous protocol (Ho et al., PEDF-derived peptide promotes skeletal muscle regeneration through its mitogenic effect on muscle progenitor cells. Am J Physiol. Cell Physiol. 2015 Aug. 1; 309(3): C159-68).

Row | Substance | TSPC proliferation (numbers of TSPC after 24-h expansion) (Primary rabbit TSPC) | induction of cultured TSPC proliferation [1] | healing of tendon rupture (tendon rupture) | induction of the cyclin D1 protein (cyclin D1) | histological appearance of treated tendon (H&E staining) (injured Achilles tendon)
1 | A107G: 29-mer variant with single glycine alteration at residue 107 (SLGAEQRTESIIHRGLYYDLISSPDIHGT; UniProt P36955 93-121, looked up, variant A107G) | 117±3.8% | – | – | – | –
2 | 24-mer: PEDF-derived short peptide, Ser93-Pro (SLGAEQRTESIIHRALYYDLISSP; UniProt P36955 93-116, looked up, fragment) | – | able to induce cultured tendon stem/progenitor cells (TSPC) proliferation | facilitated healing of tendon rupture | – | –
3 | A96G: 29-mer variant with single glycine alteration at alanine-96 (SLGGEQRTESIIHRALYYDLISSPDIHGT; UniProt P36955 93-121, looked up, variant A96G) | 102±4.0% | – | – | 1.5±0.3 fold | loss of fiber organization and accompanied a marked increase in inflammatory matrix, fatty deposits, and vascularity
4 | 1104A: 29-mer variant with single alanine replacement at isoleucine-104 (SLGAEQRTESIAHRALYYDLISSPDIHGT; UniProt P36955 93-121, looked up, variant I104A) | 112±1.7% | – | – | 1.3±0.2 fold | loss of fiber organization and accompanied a marked increase in inflammatory matrix, fatty deposits, and vascularity
5 | 1103A: 29-mer variant with single alanine replacement at isoleucine-103 (SLGAEQRTESAIHRALYYDLISSPDIHGT; UniProt P36955 93-121, looked up, variant I103A) | 106±5.3% | – | – | 0.9±0.1 fold | loss of fiber organization and accompanied a marked increase in inflammatory matrix, fatty deposits, and vascularity
6 | Q98A: 29-mer variant with single alanine replacement at glutamine-98 (SLGAEARTESIIHRALYYDLISSPDIHGT; UniProt P36955 93-121, looked up, variant Q98A) | 106±5.4% | – | – | 1.3±0.1 fold | loss of fiber organization and accompanied a marked increase in inflammatory matrix, fatty deposits, and vascularity
7 | R99A: 29-mer variant with single alanine alteration at residue 99 (SLGAEQATESIIHRALYYDLISSPDIHGT; UniProt P36955 93-121, looked up, variant R99A) | 116±7.0% | – | – | – | –
8 | 20-mer: PEDF-derived short peptide, Ser93-Leu112 (SLGAEQRTESIIHRALYYDL; UniProt P36955 93-112, looked up, fragment) | – | able to induce cultured tendon stem/progenitor cells (TSPC) proliferation | facilitated healing of tendon rupture | – | –
9 | R106A: 29-mer variant with single alanine replacement at arginine-106 (SLGAEQRTESIIHAALYYDLISSPDIHGT; UniProt P36955 93-121, looked up, variant R106A) | 106±3.5% | – | – | 1.0±0.3 fold | loss of fiber organization and accompanied a marked increase in inflammatory matrix, fatty deposits, and vascularity
10 | P116A: 29-mer variant with single alanine alteration at residue 116 (SLGAEQRTESIIHRALYYDLISSADIHGT; UniProt P36955 93-121, looked up, variant P116A) | 115±3.7% | – | – | – | –
